Reference: publication PMC7015663 (Journal of the American Chemical Society, 2019)
Where two headings read alike, the source gives them in different places. Blank lines part the entries; values can stand above or below the molecule they belong to.

Key:
RNase A [1] = target: T1, RNase A (Bos taurus, UniProt P61823); conditions: cited from earlier work
T1 sequence (P61823 27-150): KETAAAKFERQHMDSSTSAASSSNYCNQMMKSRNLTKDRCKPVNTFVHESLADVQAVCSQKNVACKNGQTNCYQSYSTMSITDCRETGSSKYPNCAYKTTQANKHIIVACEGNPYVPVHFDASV

RNase A [2] = target: T1, RNase A; assay: Inhibition kinetics of RNase A using a fluorogenic substrate; format: biochemical, bovine; conditions: ± standard error of fitting one-site binding equation; this work
RNase A [3] = target: T1, RNase A; assay: Salt dependence of inhibition/binding of RNase A; format: biochemical, bovine; conditions: salt dependence of inhibition (Figure S30)

Compound: O=P(O)(O)OP(=O)(O)O [P2i, pyrophosphate]
Ki (RNase A [1]; ref [40]): 170 µM

Ki (RNase A [2]): 170 ± 6 µM
Compound: Nc1ncnc2c1ncn2[C@@H]1O[C@H](COP(=O)(O)O)[C@@H](O)[C@H]1O [pA]

Ki (RNase A [2]): 1.4 ± 0.06 µM
Compound: Nc1ncnc2c1ncn2[C@@H]1O[C@H](COP(=O)(O)OP(=O)(O)OP(=O)(O)OP(=O)(O)OP(=O)(O)O)[C@@H](O)[C@H]1O [p5A]

Compound: O=c1ccn([C@@H]2O[C@H](COP(=O)(O)OP(=O)(O)O)[C@@H](O)[C@H]2O)c(=O)[nH]1 [p2U]
Ki (RNase A [1]; ref [43]): 650 µM

δlogKd/δlog[Na+] (RNase A [3]): 3.2
Ki (RNase A [2]): 0.068 ± 0.007 µM
Compound: O=c1ccn([C@@H]2O[C@H](COP(=O)(O)OP(=O)(O)OP(=O)(O)OP(=O)(O)OP(=O)(O)O)[C@@H](O)[C@H]2O)c(=O)[nH]1 [p5U]

Compound: Cc1cn([C@H]2C[C@H](OP(=O)(O)OP(=O)(O)OC[C@H]3O[C@@H](n4cnc5c(N)ncnc54)C[C@@H]3O)[C@@H](CO)O2)c(=O)[nH]c1=O [TppdA]
Ki (RNase A [1]; ref [7]): 4 µM

Ki (RNase A [2]): 0.98 ± 0.07 µM
Compound: O=c1ccn(C2OC(COP(=O)(O)OP3(=O)OP(=O)(O)OP(=O)(O)OP(=O)(O)O3)C(O)C2O)c(=O)[nH]1 (stereo not drawn) [cp4pU]

Compound: Nc1ncnc2c1ncn2[C@@H]1O[C@H](COP(=O)(O)OP(=O)(O)OP(=O)(O)OP(=O)(O)OC[C@H]2O[C@@H](n3cnc4c(N)ncnc43)[C@H](O)[C@@H]2O)[C@@H](O)[C@H]1O [Ap4A]
Ki (RNase A [1]; ref [10]): 2.6 µM

Compound: O=P(O)(O)O [Pi, orthophosphate]
Ki (RNase A [1]; ref [40]): 4600 µM

Compound: Nc1ncnc2c1ncn2[C@@H]1O[C@H](COP(=O)(O)OP(=O)(O)OP(=O)(O)OP(=O)(O)OP(=O)(O)OC[C@H]2O[C@@H](n3cnc4c(N)ncnc43)[C@H](O)[C@@H]2O)[C@@H](O)[C@H]1O [Ap5A]
Ki (RNase A [1]; ref [10]): 0.23 µM

Ki (RNase A [2]): 0.48 ± 0.03 µM
Compound: Nc1ncnc2c1ncn2C1OC(COP(=O)(O)OP2(=O)OP(=O)(O)OP(=O)(O)OP(=O)(O)O2)C(O)C1O (stereo not drawn) [cp4pA]

Ki (RNase A [2]): 8.3 ± 0.3 µM
Compound: O=c1ccn([C@@H]2O[C@H](COP(=O)(O)OP(=O)(O)OP(=O)(O)O)[C@@H](O)[C@H]2O)c(=O)[nH]1 [p3U]

Ki (RNase A [2]): 30 ± 0.8 µM
Compound: O=P1(O)OP(=O)(O)OP(=O)(O)OP(=O)(O)O1 [cP4i, tetrametaphosphate]

Compound: Nc1ncnc2c1ncn2[C@@H]1O[C@H](COP(=O)(O)OP(=O)(O)O)[C@@H](O)[C@H]1O [p2A]
Ki (RNase A [1]; ref [41]): 1.2 µM

Compound: O=c1ccn([C@@H]2O[C@H](COP(=O)(O)O)[C@@H](O)[C@H]2O)c(=O)[nH]1 [pU]
Ki (RNase A [1]; ref [42]): 4000 µM

Compound: Nc1ncnc2c1ncn2[C@@H]1O[C@H](COP(=O)(O)OP(=O)(O)O)[C@@H](OP(=O)(O)O)[C@H]1O [ppAp]
Ki (RNase A [1]; ref [7]): 0.24 µM

Compound: Cc1cn(C2CC(OP(=O)(O)OP(=O)(O)OCC3OC(n4cnc5c(N)ncnc54)C(O)C3OP(=O)(O)O)C(COP(=O)(O)O)O2)c(=O)[nH]c1=O (stereo not drawn) [pdTppAp]
Ki (RNase A [1]; ref [7]): 0.041 µM

Ki (RNase A [2]): 1.8 ± 0.1 µM
Compound: O=c1ccn([C@@H]2O[C@H](COP(=O)(O)OP(=O)(O)OP(=O)(O)OP(=O)(O)O)[C@@H](O)[C@H]2O)c(=O)[nH]1 [p4U, uridine tetraphosphate]

Compound: Nc1ncnc2c1ncn2[C@@H]1O[C@H](COP(=O)(O)OP(=O)(O)O[C@H]2C[C@H](n3ccc(=O)[nH]c3=O)O[C@@H]2CO)[C@@H](OP(=O)(O)O)[C@H]1O [dUppAp]
Ki (RNase A [1]; ref [7]): 0.12 µM

Compound: Nc1ncnc2c1ncn2C1OC(COP(=O)(O)OP(=O)(O)OC2CC(n3ccc(=O)[nH]c3=O)OC2COP(=O)(O)O)C(OP(=O)(O)O)C1O (stereo not drawn) [pdUppAp]
Ki (RNase A [1]; ref [7]): 0.027 µM

Ki (RNase A [2]): 6.2 ± 0.1 µM
Compound: O=P1(O)OP(=O)(O)OP(=O)(O)OP(=O)(O)OP(=O)(O)OP(=O)(O)O1 [cP6i, hexametaphosphate]

Ki (RNase A [2]): 23 ± 1 µM
Compound: O=P(O)(O)OP(=O)(O)OP(=O)(O)O [P3i]

Ki (RNase A [2]): 2.1 ± 0.2 µM
Compound: Nc1ncnc2c1ncn2[C@@H]1O[C@H](COP(=O)(O)OP(=O)(O)OP(=O)(O)OP(=O)(O)O)[C@@H](O)[C@H]1O [p4A, adenosine tetraphosphate]

Ki (RNase A [2]): 960 ± 80 µM
Compound: O=P1(O)OP(=O)(O)OP(=O)(O)O1 [cP3i, trimetaphosphate]

Compound: Nc1ncnc2c1ncn2[C@@H]1O[C@H](COP(=O)(O)OP(=O)(O)OP(=O)(O)O)[C@@H](O)[C@H]1O [p3A]
Ki (RNase A [1]; ref [10]): 0.86 µM

Compound: Nc1ncnc2c1ncn2[C@@H]1O[C@H](COP(=O)(O)OP(=O)(O)OP(=O)(O)OC[C@H]2O[C@@H](n3cnc4c(N)ncnc43)[C@H](O)[C@@H]2O)[C@@H](O)[C@H]1O [Ap3A]
Ki (RNase A [1]; ref [10]): 29 µM
